Data set [1] can be described thus: DPPH assay (ability to scavenge nitrogen radicals). The arrangement: DPPH assay % inhibition: concentration or dose not given beside the values. As to the method: The samples were mixed with DPPH (23.6 μg/ml, in ethanol), and incubated in dark at 37° C. for 30 minutes. The DPPH absorbance reduced by each sample was measured at 517 nm. Vitamin C (Sigma-Aldrich, St. Louis, Mo.) was used as a control, and the DPPH inhibition value (%) was calculated using the following equation: Scavenging activity (%)=[Absmax(Vit.C)−Abssample]/[Absmax(Vit.C)−Absmin(Vit.C)]×100. Equation 1
(§1) The antioxidant activities of the verbenone derivatives of the present invention were measured by the following two different chemical reactions: (1) a single electron transfer-based assay that is a […] [DPPH] assay that measures a decrease in DPPH acting as a free radical generator and a termination probe; and (2) a hydrogen atom transfer assay that is an oxygen radical absorbance capacity [[…]] assay that measures the competitive reaction kinetics of a peroxyl radical generator (AAPH; 2,2′-azobis-(2-methylpropionamide)-dihydrochloride) and each sample acting as an antioxidant for oxidizable fluorescent probe (fluorescein).

Data set [2] can be described thus: Oxygen radical absorbance capacity (ORAC) assay. Set-up: ORAC assay TE25 (trolox equivalents): dose or concentration left out as unconfirmed. To be noted: for ORAC assay TE25 (trolox equivalents): net AUC sample / net AUC trolox. As to the method: An ORAC assay was performed as disclosed in the literature (Huang, D. et al., J. Agric. Food Chem., 53, 1841-56, 2005).
AAPH (60 mM) and fluorescein (50 nM) were prepared in buffer (75 mM phosphate buffer, pH7.4) without a sample or a sample or a standard (Trolox). Each of the samples and the standard was suspended in a solution of 7% RMCD (randomly methylated beta-cyclodextrin) in 50% acetone. RMCD was used to increase the solubility of oil-soluble samples. Each sample was sufficiently mixed with fluorescein solution (66 nM, 190 μl) by shaking for 5 seconds. After incubation at 37° C. for 10 minutes, AAPH (500 mM, 30 μl) was quickly added to each sample, and a decrease in the fluorescence was measured using a fluorescence microplate reader (Ex=485 nm, Em=530 nm; SpectraMax GeminiEM, Molecular Devices, Sunnyvale, Calif.) at 37° C. at 5-min intervals for 9 hours. To quantify the activity of scavenging peroxyl radicals, AUC (area-under-the-curve) was calculated according to the following equation 2, and net AUC was calculated according to the following equation 3, and the TE (trolox equivalents) of each sample was calculated according to the following equation 4 based on a standard curve of net AUC plotted according to an increase in trolox concentration. AUC=(0.5+f1/f0+f2/f0+f3/f0+ . . . +fn−2/f0+fn−1/f0+fn/f0)×5, Equation 2
wherein f0 is the first fluorescence at 0 min and time I. Net AUC=AUCsample−AUCblank. Equation 3 TE(trolox equivalents) of each sample=[netAUCsample […]]/[net AUCtrolox […]]. Equation 4
as §1

For data set [3], the system named is cortical neurons. Briefly: NMDA-induced excitotoxicity, LDH release. The arrangement: dose or concentration left out as unconfirmed. To be noted: cultured cortical neuronal cells; sample 30 min before NMDA; lower than MK-801; FIG. 2. The class given is cell-based, SD rats. As to the method:
(§2) Cortical neurons (5×10^5 cells/ml) were isolated from fetal SD rats (16-17 days). Specifically, brain cortex was cut, and cells were isolated from the tissue by repeated trituration using a Pasteur pipette in buffer (Hanks' Balanced Salt Solution, HBSS). The cell suspension (1.8×10^3 cells/mm^2) was dispensed on a plate pretreated with poly-D-lysine ([…])/laminin ([…]). The cells were placed in 10% FBS-containing NBM medium, and incubated in a […]/5% CO2 atmosphere at 37° C. After 15-16 days of the incubation, the experiment was performed.
After incubation on the plate for 15-18 days, the cortical neurons were exposed to NMDA ([…]) in a solution (Mg^2+-free Earle's balanced salt solution (EBSS); containing 1.8 mM CaCl2 and 10 mM glycine) for 10 minutes. After exposure, the cells were washed with MgSO4-containing EBSS solution, and incubated in 25 mmol/L glucose-containing DMEM medium in a 5% CO2 incubator at 37° C. 30 Minutes before treatment with NMDA, the cells were treated with each sample […].
(§3) In order to measure cell injury or cell death, the amount of LDH released into the medium was measured using a cell viability measurement kit (Sigma-Aldrich, St. Louis, Mo.). Cell viability was expressed as the percentage of LDH relative to the total cellular LDH level measured in sister cultures lysed by freezing-thawing after the experiment.

For data set [4], the system named is cortical neurons. Briefly: Oxygen-glucose deprivation (OGD)/reoxygenation neuronal injury, LDH release. The class given is cell-based. The note with it: rat cortical neurons, FIG. 1. As to the method:
as §2
In order to induce hypoxic-ischemic symptoms in vitro, the incubated cells were placed in an anoxic chamber (partial oxygen pressure <2 mmHg). The cells were incubated glucose-free DMEM while being bubbled with an anaerobic gas mixture (95% N2 and 5% CO2) for 30 minutes to remove residual oxygen, and were incubated at 37° C. for 90 minutes for oxygen deprivation. After 90 minutes, the exposed solution was replaced with 25 mmol/L glucose-containing DMEM medium to stop the OGD reaction, and the cells were restored to normal oxygen conditions. Control cells not exposed to OGD were incubated in glucose (25 mmol/L)-containing DMEM medium provided with an aerobic gas mixture (95% air and 5% CO2). The cells were treated with each sample 30 minutes before, and during the entire period of OGD/re-oxygenation.
as §3

Data set [5] relates to cortical neurons. Briefly: Intracellular levels (DCF fluorescence) of reactive oxygen species after OGD/reoxygenation. The class given is cell-based, SD rats. To be noted: FIG. 3. As to the method: In order to examine the direct radical scavenging activities of the samples, at 1 hour after reoxygenation, the cells were stained with the fluorescent probe H2DCF-DA (2,7-dihydroichlorofluorescein diacetate) that is widely used to measure intracellular oxidative stress. After 2 hours, the cells were washed in EBSS buffer (containing 25 mM glucose, 1.8 mM CaCal2, 1.2 mM MgSO4 and 2.5 mM probenecid (pH7.4)), and the fluorescence of DCF was measured with a fluorescence microplate reader (SpectraMax GeminiEM; Ex=485 nm, Em=530 nm) or a fluorescence microscope (DM IL HC Fluo, Leica, Wetzlar, Germany) equipped with a digital camera (DFC420C, Leica, Wetzlar Germany). The fluorescence intensity was compensated with autofluorescence (i.e., the fluorescence of cells not loaded with H2DCF-DA).

The next data set has as its system focal ischemia. To be noted: rats and gerbils; literature; cited from earlier work.

Turning to `CC1(C)[C@@H]2C[C@H]1C(C=Cc1ccc(O)c(O)c1)=CC2=O` [Compound 3c, (1S,5R)-4-(3,4-dihydroxystyryl)-6,6-dimethylbicyclo[3.1.1]hept-3-en-2-one], the “DPPH scavenging activity (in words)” value in data set [1] (compared to vitamin C at the same concentration) is recorded as “stronger scavenging activity compared to vitamin C”. The “DPPH assay % inhibition” value in data set [1] (relative to vitamin C (Equation 1)) is 91.62 ± 3.27%. Besides, in data set [2], the “ORAC assay Net AUC” value is 131.29 ± 11.97 and the “ORAC assay TE25 (trolox equivalents)” value was 3.11 ± 0.11. Also, the NMDA-induced neuronal injury result in the data set with cortical neurons [3] is “significantly reduced NMDA-induced neuronal injury”. Also, in the data set on cortical neurons [4] (OGD/reoxygenation, comparable to MK801), the “neuronal injury induced by OGD (LDH release)” value is “significantly reduced neuronal injury”. In addition, the cytotoxicity entry in the data set with cortical neurons [4] is “showed no cytotoxicity”. Moreover, the “OGD-induced intracellular oxidative stress (DCF fluorescence)” value in the data set on cortical neurons [5] is given as “reduced OGD-induced intracellular oxidative stress”.
Compound `CC1(C)[C@@H]2C[C@H]1C(C=Cc1ccc(-n3cccc3)cc1)=CC2=O` [Compound 4e, (1S,5R)-4-(4-(1H-pyrrol-1-yl)styryl)-6,6-dimethylbicyclo[3.1.1]hept-3-en-2-one] yielded a melting point of 146 to 148 °C. For the same compound, in data set [2], the “ORAC assay Net AUC” value turned out to be 98.31 ± 0.48 and the “ORAC assay TE25 (trolox equivalents)” value stood at 2.19 ± 0.01. Further, the “peroxyl radical scavenging activity in ORAC assay (in words)” value in data set [2] (compared to trolox) was “strong peroxyl radical scavenging activities compared to trolox”.
Take `C[C@]12N[C@H](Cc3ccccc31)c1ccccc12` [MK-801]: the “time of administration after onset of focal ischemia giving a neuron protection effect” value with focal ischemia was at most 1 h.

The values above are taken from US10710951B2, “Pharmaceutical composition containing verbenone derivative for treating or preventing neurodegenerative disease” (KOREA UNIVERSITY RESEARCH AND BUSINESS FOUNDATION, priority 2012, dated 2020).
